Data reported in patent US4657892A, “Pharmacologically active peptides” (priority 1983, dated 1987).
Entries after “also recorded” stand apart in the source; their conditions may differ. Where two headings read alike, the source gives them in different places. Non-standard residues stand in square brackets, D forms with d. Residues, ends and D or L forms follow the SMILES beside them.

Assays:
α-chymotrypsin = molecular target: T1, α-chymotrypsin (Bos taurus, UniProt P00766, DEL14-15/DEL147-148); experiment: enzymatic stability against α-chymotrypsin, remaining activity assayed on guinea-pig ileum; type: in vitro ADME; conditions: 1 mg peptide, 50 μg α-chymotrypsin, Krebs-Ringer solution, 5 hours at 37° C.
T1 construct: purchased Serva, Heidelberg
Procedure: 1 mg of each of the peptides dermorphin, I, II, III and IV (table 1) were dissolved in 1 ml freshly prepared Krebs-Ringer solution and mixed together with 50 μg α-chymotrypsin (Serva, Heidelberg, dissolved in 50 μl Krebs-Ringer solution); immediately after mixing, a 100 μl aliquot was removed and heated up to 95° C. for 15 minutes. (The heating was employed in order to inactivate the enzyme). This aliquot removed, will be later used for reference as initial value (Zero-value of incubation time). The remaining 950 μl of the peptide/enzyme mixture were incubated for 5 hours at 37° C.; the incubation period was also terminated by heating up to 95° C.
After centrifugation identical aliquots of the supernatants were assayed quantitatively for their opiate-like effect and compared with the zero-value; and guinea-pig ileum was also used as assay system (as above described).

[1] = test system: isolated guinea-pig ileum; experiment: opioid activity in the electrically stimulated guinea-pig ileum preparation; type: cell-based; conditions: for rel. value Der. = 100 / rel. value Nor. = 100: relative potency; for rel. value Der. = 100: dermorphin IC50 = 100%; for rel. value Nor. = 100: normorphine IC50 = 100%
Description: As biological test system for determination of the opioid activity the ileum preparation of the guinea-pig was used (detailed description German application No. 29 21 216, p. 24). […] In addition for a better understanding the IC50 -value can be expressed as 100% for the opiates normorphine and dermorphin (DT-OS No. 30 34 897) and the relative activity of the single substances can be given in comparison to normorphine or dermorphine. The indication of the relative potency has the advantage that by this variations of the sensitivity of the assay are neutralized.
The (*) marked values of table 1 correspond to those which have been described by Castiglione et al. (Peptides, 2, p. 266, table 1, substances 1 and 3: column GPI=guinea-pig ileum preparation).
IC50 -values (nM), see description, of two peptides of the invention (III an IV) in comparison to those of the prior art (dermorphin,I,II) as measured in the isolated guinea-pig ileum. […] The inhibiting effect of the substances I, II, III, and IV was antagonized by addition of the specific opiate antagonist naloxone (final concentration in the organ bath 900 nM); upon further addition of the substances I to IV to the organ bath (in presence of naloxone) no further inhibition could be observed; the inhibiting effect of the substances I-IV has therefore to be considered as specific opiate-like.

[2] = test system: isolated guinea-pig ileum; conditions: * marked, from Castiglione et al., Peptides 2, p. 266, read-out: IC50 (* values described by Castiglione et al.); cited from earlier work

| Structure (SMILES) | opiate-like activity remaining after incubation with α-chymotrypsin compared to zero-value (α-chymotrypsin) | IC50 ([1]; Cavia porcellus, isolated guinea-pig ileum, 7 experiments, read-out: IC50 (inhibition of electrically induced contractions by 50%)) [nM] | rel. value Der. = 100 [1] | rel. value Nor. = 100 [1] | IC50 [2] [nM] |
| --- | --- | --- | --- | --- | --- |
| C[C@@H](NC(=O)[C@@H](N)Cc1ccc(O)cc1)C(=O)N[C@@H](Cc1ccccc1)C(=O)N1CCC[C@H]1C(=O)N[C@@H](Cc1ccc(O)cc1)C(N)=O [Substance I, Tyr--D-Ala--Phe--Pro--Tyr--NH2] (H-Y[dA]FPY-NH2) | higher stability than substance II |  |  |  |  |
| C[C@@H](NC(=O)[C@@H](N)Cc1ccc(O)cc1)C(=O)N[C@@H](Cc1ccccc1)C(=O)NCC(=O)N[C@@H](Cc1ccc(O)cc1)C(N)=O [Substance II, Tyr--D-Ala--Phe--Gly--Tyr--NH2] (H-Y[dA]FGY-NH2) | nearly fully destroyed |  |  |  |  |
| C[C@@H](NC(=O)[C@H](Cc1ccccc1)NC(=O)[C@@H](C)NC(=O)[C@@H](N)Cc1ccc(O)cc1)C(=O)N[C@@H](Cc1ccccc1)C(N)=O [Substance IV, Tyr--D-Ala--Phe--D-Ala--Phe--NH2] (H-Y[dA]F[dA]F-NH2) | full opiate-like activity |  |  |  |  |
| Oc1ccc2c3c1O[C@H]1[C@@H](O)C=C[C@H]4[C@@H](C2)NCC[C@@]341 [Normorphine] |  | 110 | 3.2 | 100 |  |
| C[C@@H](NC(=O)[C@H](Cc1ccccc1)NC(=O)[C@@H](C)NC(=O)[C@@H](N)Cc1ccc(O)cc1)C(=O)N[C@@H](Cc1ccc(O)cc1)C(N)=O [Substance III, Tyr--D-Ala--Phe--D-Ala--Tyr--NH2] (H-Y[dA]F[dA]Y-NH2) | higher stability towards proteolytic enzymes (compared to II); also recorded: full opiate-like activity |  |  |  |  |
| C[C@@H](NC(=O)[C@@H](N)Cc1ccc(O)cc1)C(=O)N[C@@H](Cc1ccccc1)C(=O)NCC(=O)N[C@@H](Cc1ccc(O)cc1)C(=O)N1CCC[C@H]1C(=O)N[C@@H](CO)C(N)=O [Dermorphin] | nearly fully destroyed |  | 100 | 3143 | 3.5 |
